# According to US20240366711A1, “PREPARATION CONTAINING CYCLIC PEPTIDE COMPOUND AND METHOD FOR PRODUCING SAME” (CHUGAI SEIYAKU KABUSHIKI KAISHA, priority 2021, published 2024):
# pIC50: −log10 of the molar value. Bridge positions count the residues as written; N and C are the ends. Square brackets hold non-standard residues; d marks the D form. Peptide text beside a SMILES is read from it. hPhe(3,5-F2-4-CF3) = N[C@@H](CCc1cc(F)c(C(F)(F)F)c(F)c1)C(=O)O; NEtPhe(4-Me) = CCN[C@@H](Cc1ccc(C)cc1)C(=O)O; NMeGly(cPent) = CN[C@H](C(=O)O)C1CCCC1; NMeD = CN[C@@H](CC(=O)O)C(=O)O; NMeL = CN[C@@H](CC(C)C)C(=O)O; NMeA = CN[C@@H](C)C(=O)O; Ac5c = NC1(C(=O)O)CCCC1; Aze = O=C(O)[C@@H]1CCN1; Sar = CNCC(=O)O
# Key:
# [1] = target: Kras-SOS1 protein-protein interaction (Homo sapiens, UniProt P01116, G12D); test: Kras-SOS1 protein-protein interaction inhibition (KrasG12D-SOS PPI) using AlphaScreen; format: binding; conditions: biotin-tagged human Kras (GDP-loaded) and His-tagged human SOS1, AlphaScreen
# Chain of Kras-SOS1 protein-protein interaction (P01116 whole entry G12D): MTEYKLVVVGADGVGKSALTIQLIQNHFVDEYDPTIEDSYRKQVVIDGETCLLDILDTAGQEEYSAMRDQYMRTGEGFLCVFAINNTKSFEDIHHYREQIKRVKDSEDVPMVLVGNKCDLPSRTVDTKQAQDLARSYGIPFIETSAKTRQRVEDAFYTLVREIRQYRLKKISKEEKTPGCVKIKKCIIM
# Experimental: Kras-SOS1 protein-protein interaction inhibition (PPI) can be performed by a method known to those skilled in the art using a device, a reagent, or the like available from commercial suppliers. Specifically, biotin-tagged human Kras and His-tagged human SOS1 enzymes expressed in E. coli and loaded with GDP after purification were used to measure PPI by energy transfer from nickel-bound donor beads to streptavidin-bound acceptor beads. This measurement is performed by irradiating the donor beads with light of 680 nm to induce energy transfer to the acceptor beads via singlet oxygen, and detecting light of 520 to 620 nm from the acceptor beads. Based on the inhibition of the control group without Compound 1, 50% inhibitory concentration (IC50 value) was calculated.
# [2] = system: Human pancreatic cancer strain AsPC-1; test: AsPC-1 cell growth inhibitory activity (AsPC-1CGI); format: cell-based; conditions: AsPC-1 cells, 96 hours, CellTiter-Glo; read-out: IC50 value (50% growth inhibition concentration)
# Experimental: AsPC-1 cell growth inhibitory activity can be performed by methods known to those skilled in the art using devices, reagents, cell lines, and the like available from commercial suppliers. Specifically, Compound 1 was serially diluted with dimethyl sulfoxide, then 200 nL of the dilution was dispensed into the U-bottom 96 well plate with Labcyte Echo. Human pancreatic cancer strain AsPC-1 was added to RPMI-1640 medium supplemented with 15% bovine fetal serum to prepare a cell suspension of 1000 cells/100 μL. The cell suspension was dispensed by 100 μL per well to Compound 1-added plates, and cultured in a 37° C., 5% carbon dioxide gas incubator. After 96 hours, 80 μL of CellTiter-Glo (Promega Corporation) was added to each well, and […] was measured. Cell growth inhibition (CGI) of the test compound was calculated as 50% growth inhibition concentration (IC50 value) from the growth inhibition rate of the case with addition of Compound I to the control without addition of Compound 1.
structure (smiles),measurement,setting,value
"CC[C@H](C)[C@@H]1NC(=O)[C@H](CC(C)C)N(C)C(=O)C[C@@H](C(=O)N(C)C)N(C)C(=O)[C@H](C2CCCC2)N(C)C(=O)C2(CCCC2)NC(=O)[C@@H]2CCCN2C(=O)[C@H](CCc2cc(F)c(C(F)(F)F)c(F)c2)NC(=O)CN(C)C(=O)[C@H](Cc2ccc(C)cc2)N(CC)C(=O)[C@@H]2CCN2C(=O)[C@H](C)N(C)C1=O [Compound 1, (5S,8S,11S,15S,18S,23aS,29S,35S,37aS)-8-((S)-sec-butyl)-18-cyclopentyl-29-(3,5-difluoro-4-(trifluoromethyl)phenethyl)-36-ethyl-11-isobutyl-N,N,5,6,12,16,19,33-octamethyl-35-(4-methylbenzyl)-4,7,10,13,17,20,23,28,31,34,37-undecaoxotetratriacontahydro-2H,4H-spiro[azeto[2,1-u]pyrrolo[2,1-i][1,4,7,10,13,16,19,22,25,28,31]undecaazacyclotetratriacontin-21,1′-cyclopentane]-15-carboxamide] ([NMeL]I[NMeA][Aze][NEtPhe(4-Me)][Sar][hPhe(3,5-F2-4-CF3)]P[Ac5c][NMeGly(cPent)][NMeD]-NMe2; lactam N-11)",pIC50,[1],9.00
same,pIC50,[2],≥ 7.70
